From patent publication US20250340557A1, “PYRIMIDINE DERIVATIVE” (ASKA PHARMACEUTICAL CO., LTD., priority 2022, published 2025)

target: T1, human mPGES-1 (Homo sapiens, UniProt O14684); test: Test for mPGES-1 inhibitory activity (microsomal enzyme, PGE2 EIA); format: biochemical; details: microsomes of COS-1 cells transfected with human mPGES-1 cDNA; PGH2 1 μM; 4° C., 4 minutes; PGE2 by EIA; read-out: h mPGES1 IC50
T1 construct: made in house; host or cells: COS-1 cells (transient transfection; microsomal fraction used as enzyme)
T1 sequence (O14684 1-152): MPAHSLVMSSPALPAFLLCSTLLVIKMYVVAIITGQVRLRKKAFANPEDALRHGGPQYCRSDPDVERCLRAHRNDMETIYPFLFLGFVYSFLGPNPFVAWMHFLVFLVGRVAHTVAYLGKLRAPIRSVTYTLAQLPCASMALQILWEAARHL
Procedure, shortened: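 Enzyme source was microsomes from COS-1 cells transiently expressing human mPGES-1, in sodium phosphate pH 7.2 with 2.5 mM GSH, 1 mM EDTA and 2% DMSO final. After a 15 min preincubation with compound at 4 °C, 1 μM PGH2 (final) reacted for 4 min at 4 °C.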

| Compound | IC50 |
| --- | --- |
| CCc1nc(-c2c(C(F)(F)F)ccc(CNC(=O)[C@H]3C[C@H](OCc4cccc(F)c4)C3)c2F)[nH]c(=O)c1F [Example 239, trans-N-[3-(4-ethyl-5-fluoro-6-oxo-1,6-dihydropyrimidin-2-yl)-2-fluoro-4-(trifluoromethyl)benzyl]-3-[(3-fluorobenzyl)oxy]cyclobutane-1-carboxamide] | < 1 nM |
| CCc1nc(-c2c(C(F)(F)F)ccc(CNC(=O)[C@H]3C[C@H](OCc4cccc(F)c4F)C3)c2F)[nH]c(=O)c1F [Example 240, trans-3-[(2,3-difluorobenzyl)oxy]-N-[3-(4-ethyl-5-fluoro-6-oxo-1,6-dihydropyrimidin-2-yl)-2-fluoro-4-(trifluoromethyl)benzyl]cyclobutane-1-carboxamide] | 3.2 nM |
| CCc1nc(-c2c(C(F)(F)F)ccc(CNC(=O)[C@H]3C[C@H](OCc4ccc(F)cc4Cl)C3)c2F)[nH]c(=O)c1F [Example 241, trans-3-[(2-chloro-4-fluorobenzyl)oxy]-N-[3-(4-ethyl-5-fluoro-6-oxo-1,6-dihydropyrimidin-2-yl)-2-fluoro-4-(trifluoromethyl)benzyl]cyclobutane-1-carboxamide] | < 1 nM |
| CCc1nc(-c2c(C(F)(F)F)ccc(CNC(=O)[C@H]3C[C@H](OCc4cccc(Cl)c4F)C3)c2F)[nH]c(=O)c1F [Example 242, trans-3-[(3-chloro-2-fluorobenzyl)oxy]-N-[3-(4-ethyl-5-fluoro-6-oxo-1,6-dihydropyrimidin-2-yl)-2-fluoro-4-(trifluoromethyl)benzyl]cyclobutane-1-carboxamide] | < 1 nM |
| CCc1nc(-c2c(C(F)(F)F)ccc(CNC(=O)[C@H]3C[C@H](OCc4cc(Cl)ccc4F)C3)c2F)[nH]c(=O)c1F [Example 243, trans-3-[(5-chloro-2-fluorobenzyl)oxy]-N-[3-(4-ethyl-5-fluoro-6-oxo-1,6-dihydropyrimidin-2-yl)-2-fluoro-4-(trifluoromethyl)benzyl]cyclobutane-1-carboxamide] | < 1 nM |
| CCc1nc(-c2c(C(F)(F)F)ccc(CNC(=O)[C@H]3C[C@H](OCc4ccc(F)c(Cl)c4)C3)c2F)[nH]c(=O)c1F [Example 244, trans-3-[(3-chloro-4-fluorobenzyl)oxy]-N-[3-(4-ethyl-5-fluoro-6-oxo-1,6-dihydropyrimidin-2-yl)-2-fluoro-4-(trifluoromethyl)benzyl]cyclobutane-1-carboxamide] | < 1 nM |
| CCc1nc(-c2c(C(F)(F)F)ccc(CNC(=O)[C@H]3C[C@H](OCc4cc(F)cc(Cl)c4)C3)c2F)[nH]c(=O)c1F [Example 245, trans-3-[(3-chloro-5-fluorobenzyl)oxy]-N-[3-(4-ethyl-5-fluoro-6-oxo-1,6-dihydropyrimidin-2-yl)-2-fluoro-4-(trifluoromethyl)benzyl]cyclobutane-1-carboxamide] | < 1 nM |
| Cc1nc(-c2c(C(F)(F)F)ccc(CNC(=O)[C@H]3C[C@H](OCc4cccc(Cl)c4)C3)c2F)[nH]c(=O)c1C [Example 246, trans-3-[(3-chlorobenzyl)oxy]-N-[3-(4,5-dimethyl-6-oxo-1,6-dihydropyrimidin-2-yl)-2-fluoro-4-(trifluoromethyl)benzyl]cyclobutane-1-carboxamide] | < 1 nM |
| O=c1[nH]c(-c2c(C(F)(F)F)ccc(CNC(=O)[C@H]3C[C@H](OCc4cccc(Cl)c4)C3)c2F)nc2c1CCC2 [Example 247, trans-3-[(3-chlorobenzyl)oxy]-N-[2-fluoro-3-(4-oxo-4,5,6,7-tetrahydro-3H-cyclopenta[d]pyrimidin-2-yl)-4-(trifluoromethyl)benzyl]cyclobutane-1-carboxamide] | < 1 nM |
| O=C(NCc1ccc(C(F)(F)F)c(-c2nc(C(F)(F)F)cc(=O)[nH]2)c1F)C1CCC(Oc2ccc(C(F)(F)F)cn2)CC1 (stereo not drawn) [Example 248, N-{2-fluoro-3-[6-oxo-4-(trifluoromethyl)-1,6-dihydropyrimidin-2-yl]-4-(trifluoromethyl)benzyl}-4-{[5-(trifluoromethyl)pyridin-2-yl]oxy}cyclohexane-1-carboxamide] | < 1 nM |
| O=c1cc(C(F)(F)F)nc(-c2c(C(F)(F)F)ccc(CNC(=O)[C@H]3C[C@H](Oc4ccc(C(F)(F)F)cn4)C3)c2F)[nH]1 [Example 249, trans-N-{2-fluoro-3-[6-oxo-4-(trifluoromethyl)-1,6-dihydropyrimidin-2-yl]-4-(trifluoromethyl)benzyl}-3-{[5-(trifluoromethyl)pyridin-2-yl]oxy}cyclobutane-1-carboxamide] | < 1 nM |
| O=c1cc(C(F)(F)F)nc(-c2c(C(F)(F)F)ccc(CNC(=O)[C@H]3C[C@@H](Oc4ccc(C(F)(F)F)cn4)C3)c2F)[nH]1 [Example 250, cis-N-{2-fluoro-3-[6-oxo-4-(trifluoromethyl)-1,6-dihydropyrimidin-2-yl]-4-(trifluoromethyl)benzyl}-3-{[5-(trifluoromethyl)pyridin-2-yl]oxy}cyclobutane-1-carboxamide] | < 1 nM |
| O=c1cc(C(F)(F)F)nc(-c2c(C(F)(F)F)ccc(CNC(=O)[C@H]3C[C@H](Oc4ccccc4Cl)C3)c2F)[nH]1 [Example 251, trans-3-(2-chlorophenoxy)-N-{2-fluoro-3-[6-oxo-4-(trifluoromethyl)-1,6-dihydropyrimidin-2-yl]-4-(trifluoromethyl)benzyl}cyclobutane-1-carboxamide] | < 1 nM |
| O=c1cc(C(F)(F)F)nc(-c2c(C(F)(F)F)ccc(CNC(=O)[C@H]3C[C@H](Oc4cccc(Cl)c4)C3)c2F)[nH]1 [Example 253, trans-3-(3-chlorophenoxy)-N-{2-fluoro-3-[6-oxo-4-(trifluoromethyl)-1,6-dihydropyrimidin-2-yl]-4-(trifluoromethyl)benzyl}cyclobutane-1-carboxamide] | 1 nM |
| O=c1cc(C(F)(F)F)nc(-c2c(C(F)(F)F)ccc(CNC(=O)[C@H]3C[C@@H](Oc4cccc(Cl)c4)C3)c2F)[nH]1 [Example 254, cis-3-(3-chlorophenoxy)-N-{2-fluoro-3-[6-oxo-4-(trifluoromethyl)-1,6-dihydropyrimidin-2-yl]-4-(trifluoromethyl)benzyl}cyclobutane-1-carboxamide] | 4.6 nM |
| O=c1cc(C(F)(F)F)nc(-c2c(C(F)(F)F)ccc(CNC(=O)[C@H]3C[C@H](Oc4ccc(Cl)cc4)C3)c2F)[nH]1 [Example 255, trans-3-(4-chlorophenoxy)-N-{2-fluoro-3-[6-oxo-4-(trifluoromethyl)-1,6-dihydropyrimidin-2-yl]-4-(trifluoromethyl)benzyl}cyclobutane-1-carboxamide] | 2.8 nM |
| CC(C)CO[C@H]1C[C@@H](C(=O)NCc2ccc(C(F)(F)F)c(-c3nc(C(F)(F)F)cc(=O)[nH]3)c2F)C1 [Example 257, cis-N-{2-fluoro-3-[6-oxo-4-(trifluoromethyl)-1,6-dihydropyrimidin-2-yl]-4-(trifluoromethyl)benzyl}-3-isobutoxycyclobutane-1-carboxamide] | 5.8 nM |
| O=C(NCc1ccc(C(F)(F)F)c(-c2nc(C(F)(F)F)cc(=O)[nH]2)c1F)N1CCC(Oc2ccc(Cl)c(Cl)c2)CC1 [Example 258, 4-(3,4-dichlorophenoxy)-N-{2-fluoro-3-[6-oxo-4-(trifluoromethyl)-1,6-dihydropyrimidin-2-yl]-4-(trifluoromethyl)benzyl}piperidine-1-carboxamide] | < 1 nM |
| O=C(NCc1ccc(C(F)(F)F)c(-c2nc(C(F)(F)F)cc(=O)[nH]2)c1F)N1CCC(Oc2ccc(C(F)(F)F)cc2)CC1 [Example 260, N-{2-fluoro-3-[6-oxo-4-(trifluoromethyl)-1,6-dihydropyrimidin-2-yl]-4-(trifluoromethyl)benzyl}-4-[4-(trifluoromethyl)phenoxy]piperidine-1-carboxamide] | < 1 nM |
| O=C(NCc1ccc(C(F)(F)F)c(-c2nc(-c3ccc(C(F)(F)F)cn3)cc(=O)[nH]2)c1F)C1CC(OCc2ccccc2)C1 (stereo not drawn) [Example 266, 3-(benzyloxy)-N-(2-fluoro-3-{6-oxo-4-[5-(trifluoromethyl)pyridin-2-yl]-1,6-dihydropyrimidin-2-yl}-4-(trifluoromethyl)benzyl)cyclobutane-1-carboxamide] | < 1 nM |
| O=C(NCc1ccc(C(F)(F)F)c(-c2nc(-c3ccc(C(F)(F)F)cn3)cc(=O)[nH]2)c1F)C1CCN(c2ccc3nccn3n2)CC1 [Example 267, N-(2-fluoro-3-{6-oxo-4-[5-(trifluoromethyl)pyridin-2-yl]-1,6-dihydropyrimidin-2-yl}-4-(trifluoromethyl)benzyl)-1-(imidazo[1,2-b]pyridazin-6-yl)piperidine-4-carboxamide] | < 1 nM |
| O=c1cc(-c2ccc(C(F)(F)F)cn2)nc(-c2c(C(F)(F)F)ccc(CNS(=O)(=O)c3ccccc3C(F)(F)F)c2F)[nH]1 [Example 269, N-(2-fluoro-3-{6-oxo-4-[5-(trifluoromethyl)pyridin-2-yl]-1,6-dihydropyrimidin-2-yl}-4-(trifluoromethyl)benzyl)-2-(trifluoromethyl)benzenesulfonamide] | 7.6 nM |
| O=c1cc(-c2ccc(C(F)(F)F)cn2)nc(-c2c(C(F)(F)F)ccc(CNS(=O)(=O)c3ccc(-c4ccccc4)cc3)c2F)[nH]1 [Example 271, N-(2-fluoro-3-{6-oxo-4-[5-(trifluoromethyl)pyridin-2-yl]-1,6-dihydropyrimidin-2-yl}-4-(trifluoromethyl)benzyl)-[1,1′-biphenyl]-4-sulfonamide] | 76 nM |
| O=c1cc(C(F)(F)F)nc(-c2c(C(F)(F)F)ccc(CNS(=O)(=O)c3ccccc3C(F)(F)F)c2F)[nH]1 [Example 272, N-{2-fluoro-3-[6-oxo-4-(trifluoromethyl)-1,6-dihydropyrimidin-2-yl]-4-(trifluoromethyl)benzyl}-2-(trifluoromethyl)benzenesulfonamide] | 33 nM |
